Test results taken from patent publication US20220348981A1, “ASSAY OF ARYLSULFATASE A ENZYMATIC ACTIVITY IN DRIED BLOOD SPOTS BY MASS SPECTROMETRY AND FLUOROMETRY” (University of Washington, priority 2019, published 2022).

Experiments:
[1] = molecular target: T1, arylsulfatase A (ARSA) (Homo sapiens, UniProt P15289); test: ARSA leukocyte assay by LC-MS/MS with deuterated sulfatide substrate; type: biochemical; details: for effect on ARSA activity: additive in assay buffer, increasing amount (Ce(acetate)3 0 to 20 mM)
T1 construct: the assay is able to detect ARSA enzymatic activity in lysates of mixed leukocytes (mainly lymphocytes) by LC-MS/MS; endogenous in cells; host or cells: mixed leukocytes (mainly lymphocytes) prepared from K2EDTA venous blood; lysate, 2 µg protein per assay
T1 sequence (P15289 19-507): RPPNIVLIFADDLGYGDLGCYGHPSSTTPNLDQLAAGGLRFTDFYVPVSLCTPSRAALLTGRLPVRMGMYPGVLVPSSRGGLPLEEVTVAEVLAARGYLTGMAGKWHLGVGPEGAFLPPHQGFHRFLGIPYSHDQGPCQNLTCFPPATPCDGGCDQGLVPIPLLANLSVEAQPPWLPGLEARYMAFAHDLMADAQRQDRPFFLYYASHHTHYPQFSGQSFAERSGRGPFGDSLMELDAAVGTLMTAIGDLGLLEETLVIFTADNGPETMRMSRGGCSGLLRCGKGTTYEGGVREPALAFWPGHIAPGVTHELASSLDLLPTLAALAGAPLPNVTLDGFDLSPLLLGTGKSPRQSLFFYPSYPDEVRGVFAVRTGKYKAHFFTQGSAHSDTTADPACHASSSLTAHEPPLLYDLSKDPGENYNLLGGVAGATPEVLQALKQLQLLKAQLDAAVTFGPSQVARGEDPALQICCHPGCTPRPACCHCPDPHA
Protocol: Development of a new ARSA leukocyte assay. Recently, Han et al. reported the detection of ARSA enzymatic activity where a natural substrate, C18:0-sulfatide, was incubated with leukocyte lysate in buffer containing sodium taurodeoxycholate as detergent (Han, M.; Jun, S. H.; Song, S. H.; Park, H. D.; Park, K. U.; Song, J., Ultra-performance liquid chromatography-tandem mass spectrometry measurement of leukocyte arylsulfatase A activity using a natural substrate. Ann Lab Med 2015, 35 (1), 165-8). As described herein, in the present assay, the deuterium labeled sulfatide d3-C18:0-sulfatide was used as substrate so that the enzymatic product (d3-C18:0-galactosyl-ceramide) also carried the three deuterium labels, and could be selectively quantified without being interfered by the endogenous galactosyl-ceramide. Using this approach, the assay is able to detect ARSA enzymatic activity in lysates of mixed leukocytes (mainly lymphocytes) by LC-MS/MS. […] If leukocyte lysate was omitted, no discernable product peak was observed above the baseline noise (data not shown). […] Because detergent was present in the assay buffer, MLD patients that are due to dysfunctional Saposin B protein will not be detected with this assay, but these variants are very rare among MLD patients (less than 5%). In the Han et al. report, MnCl2 was added to the buffer at a concentration of 33 mM. […] Barium or cerium […] are often used to assay sulfatases in complex matrices to sequester inorganic sulfate and phosphate ions, which are potent inhibitors of sulfatases. […] The ARSA activity was pH dependent with an optimal pH at 4.5. […] The pH optimum of ARSA and the KM value found agreed with the previous reports. […]
Enzymatic activity calculation. ARSA activity in leukocyte (nmol/h/mg protein) was calculated by multiplying the ion ratio of ARSA product to ARSA internal standard (blank subtracted) by the nanomoles of internal standard added to the assay, then dividing by the incubation time (h) and the amount of leukocyte protein used (mg). […]

[2] = molecular target: T1, arylsulfatase A (ARSA); test: ARSA assay with a 3 mm DBS punch, no purification; type: biochemical; details: 5 mM added to the assay buffer; data not shown
Protocol: Application of ARSA assay to DBS extracts purified by immune-precipitation. Initial attempts to detect ARSA enzymatic activity in DBS were unsuccessful. When the leukocyte lysate was substituted with a 3 mm DBS punch in the ARSA assay, no ARSA activity could be detected. Moreover, no ARSA activity was observed when leukocyte lysate was co-incubated with a DBS punch, whereas activity was seen when the leukocyte was incubated with a filter paper punch lacking blood matrix (data not shown). This indicated the presence of some ARSA inhibitor(s) in whole blood.

effect on ARSA activity [1]	rescue of ARSA activity in DBS [2]	Km ([1]; leukocyte lysate, substrate concentration varied, hyperbolic kinetics, pH 4.5) [µM]	Compound
decrease	did not rescue ARSA activity		CC(=O)[O-].CC(=O)[O-].CC(=O)[O-].[Ce+3] [Ce(acetate)3]
decrease with increasing amount			[Cl][Mn][Cl] [MnCl2]
	did not rescue ARSA activity		CC(=O)[O-].CC(=O)[O-].[Pd+2] [Pd(Acetate)2]
		83	d3-C18:0-sulfatide
